What is called EC50 is the concentration that produces a half-maximal response.

What all share (type): cell-based
Series [1] can be described thus: Cell viability test (CellTiter-Fluor) in HCV 1b replicon cells. The following applies: human, HCV 1b replicon Huh7 cells, 3 days culture, read-out: CC50 (half cytotoxic concentration). The protocol:
(§1) Each of the compounds prepared in the above examples of the present invention was dissolved at 10 mM in DMSO, then diluted to 50 μM with DMEM complete medium, then diluted to 20 nM with complete medium containing 0.5% DMSO, and then serially diluted by 3-fold, to obtain a total of 10 concentrations.
(§2) HCV 1b replicon cells, i.e., Huh7 cell line stably transfected with HCV genotype 1b replicon, were provided by WuXi AppTec (Shanghai) Co., Ltd. Specific preparation methods of Huh7 lb replicon cell system can be found in Lohmann V, Korner F, Koch J, Herian U, Theilmann L, Bartenschlager R., Replication of subgenomic hepatitis C virus RNAs in a hepatoma cell line, Science 285 (5424): 110-113 (1999).
(§3) 1) Preparation of compounds: adding 75 μl of the compounds of the present invention at the above concentration gradient to a 96-well plate using POD810 system, with each concentration for each compound in duplicate;
(§4) 2) Preparation of cells: collecting HCV 1b replicon cells in logarithmic phase and resuspending them in DMEM complete medium, and then adding 75 μl of the cell suspension to each well of the above 96-well plate (8×10^3 cells/well); at the same time, establishing zero percent effect (ZPE) control group and hundred percent effect (HPE) control group, with ZPE group using complete culture medium containing 0.5% DMSO instead of the compound, and the HPE group merely containing DMEM medium in the wells.
(§5) 3) Cell culture: placing the 96-well plate in a 37° C., 5% CO2 incubator and culturing for 3 days.
(§6) 4) Cell viability test: after adding detection reagent for fluorescence assay of cell growth to each well and culturing the cells in a 37° C., 5% CO2 incubator for one hour, detecting the fluorescence signal values using the multimode microplate reader, with the raw data (RFU) being used for calculation of the cytotoxicity of the compounds;
(§7) 6) Data processing: processing the raw data using the following formula into the inhibition percentage of the compound against HCV replicon (Inhibition %) and the percentage of cell viability (Viability %): Inhibition %=(RLUZPE−RLUCPD)/(RLUZPE−RLUHPE)×100 Viability %=(RFUCPD−RFUHPE)/(RFUZPE−RFUHPE)×100 wherein CPD: the fluorescence signal value of the well of the compound; ZPE (zero percent effect): the fluorescence signal value of the zero percent effect control; HPE (hundred percent effect): the fluorescence signal value of the hundred percent effect control.
(§8) The Inhibition % and Viability % were introduced into GraphPad Prism software for data processing, respectively, to obtain the half effective concentration EC50 of the compound against HCV replicon and the half cytotoxic concentration CC50.
(Replicon systems follow genome replication, usually without infectious particles.)

The test system of series [2] is HCV genotype 1b replicon. As to the kind of experiment: Anti-HCV-1b replicon activity (luciferase, Bright-Glo). The following applies: Hepatitis C virus, Huh-7, 72 h, read-out: EC50 against HCV-1b replicon. On the procedure:
as §1, §2, §3, §4, §5
(§9) 5) Anti-HCV replicon activity assay: adding luciferase luminescence substrate Bright-Glo to each well, and detecting luminescence signal values using the multimode microplate reader within 5 min, with the raw data (RLU) being used for calculation of the anti-HCV activities of the compounds;
as §7, §8

Series [3] can be described thus: Cell viability test (CellTiter-Fluor) in HCV 1a replicon cells. Conditions: human, Huh7 cells stably transfected with HCV genotype 1a replicon; HCV 1a replicon Huh7 cells, 3 days culture; read-out: CC50 (half cytotoxic concentration). The protocol:
as §6, §7, §8
(§10) HCV 1a replicon cells, i.e., Huh7 cell line stably transfected with HCV genotype 1a replicon (provided by WuXi AppTec (Shanghai) Co., Ltd.) were used as the experimental cells. As described above for the HCV 1b replicon cell system, the HCV genotype 1a replicon cell systems were similarly prepared.
(§11) The anti-HCV-1a activities of the compounds of the present invention were tested according to the method for testing the anti-HCV-1b replicon activity in Experimental Example 1.

Series [4] relates to HCV genotype 1a replicon. Briefly: Anti-HCV-1a replicon activity (luciferase, Bright-Glo). The following applies: Hepatitis C virus, Huh-7, 72 h, read-out: EC50 against HCV-1a replicon. The protocol:
as §3, §4, §5, §9, §7, §8, §10, §11

Where [5] appears, read: Huh7 cells stably transfected with HCV genotype 1b replicon.

On to `COC(=O)N[C@H](C(=O)N1CCC[C@H]1c1ncc(-c2ccc3c(c2)C(F)(F)C(F)(F)c2cc(-c4cnc([C@@H]5CCCN5C(=O)[C@@H](NC(=O)OC)C(C)C)[nH]4)ccc2-3)[nH]1)C(C)C` [Example 1, Dimethyl (2S,2′S)-1,1′-((2S,2′S)-2,2′-(5,5′-(9,9,10,10-tetrafluoro-9,10-dihydrophenanthren-2,7-diyl)bis(1H-imidazol-5,2-diyl))bis(pyrrolidin-2,1-diyl))bis(3-methyl-1-oxobutan-2,1-diyl)dicarbamate], for which the CC50 at 3 days in series [1] (setting [5]) and in series [3] was > 10 nM in each case. The values for the EC50 in series [2] and in series [4] were 0.0046 nM and 0.19 nM, respectively.
For the compound `COC(=O)N[C@H](C(=O)N1CCCC1c1ncc(-c2ccc(-c3ccc4c(c3)C(F)(F)C(F)(F)c3cc(-c5ccc(-c6cnc([C@@H]7CCCN7C(=O)[C@@H](NC(=O)OC)C(C)(C)C)[nH]6)cc5)ccc3-4)cc2)[nH]1)C(C)(C)C` (stereo partly drawn) [Example 2, dimethyl (2S,2′S)-1,1′-((2S,2′S)-2,2′-(5,5′-(4,4′-(9,9,10,10-tetrafluoro-9,10-dihydrophenanthren-2,7-diyl)bis(4,1-phenylene))bis(1H-imidazol-5,2-diyl))bis(pyrrolidin-2,1-diyl))bis(3,3-dimethyl-1-oxobutan-2,1-diyl)dicarbamate], the CC50 at 3 days in series [1] (setting [5]) was > 10 nM. Moreover, the EC50 in series [2] is 0.017 nM.
Consider `COC(=O)N[C@H](C(=O)N1[C@@H]2CC[C@@H](C2)[C@H]1c1ncc(-c2ccc3c(c2)C(F)(F)C(F)(F)c2cc(-c4cnc([C@@H]5[C@H]6CC[C@H](C6)N5C(=O)[C@@H](NC(=O)OC)C(C)C)[nH]4)ccc2-3)[nH]1)C(C)C` [Example 3, Dimethyl (2S,2′S)-1,1′-((1R,1′R,3S,3′S,4S,4′S)-3,3′-(5,5′-(9,9,10,10-tetrafluoro-9,10-dihydrophenanthren-2,7-diyl)bis(1H-imidazol-5,2-diyl))bis(2-azabicyclo[2.2.1]heptan-3,2-yl))bis(3-methyl-1-oxobutan-2,1-diyl)dicarbamate], for which the CC50 at 3 days in series [1] was > 10 nM. In series [2], the EC50 stood at 0.017 nM.
Consider `COC(=O)N[C@H](C(=O)N1[C@@H]2CC[C@@H](C2)[C@H]1c1ncc(-c2ccc3c(c2)C(F)(F)C(F)(F)c2cc(-c4cnc([C@@H]5[C@H]6CC[C@H](C6)N5C(=O)[C@@H](NC(=O)OC)C(C)(C)C)[nH]4)ccc2-3)[nH]1)C(C)(C)C` [Example 4, Dimethyl (2S,2′S)-1,1′-((1R,1′R,3S,3′S,4S,4′S)-3,3′-(5,5′-(9,9,10,10-tetrafluoro-9,10-dihydrophenanthren-2,7-diyl)bis(1H-imidazol-5,2-diyl))bis(2-azabicyclo[2.2.1]heptan-3,2-yl))bis(3,3-dimethyl-1-oxobutan-2,1-diyl)dicarbamate], for which the CC50 at 3 days in series [1] (setting [5]) was > 10 nM. Further, the EC50 in series [2] is 0.047 nM.
On to `COC(=O)N[C@H](C(=O)N1[C@@H]2CC[C@@H](C2)[C@H]1c1ncc(-c2ccc3c(c2)C(F)(F)C(F)(F)c2cc(-c4cnc([C@@H]5[C@H]6CC[C@H](C6)N5C(=O)[C@@H](NC(=O)OC)[C@@H](C)O)[nH]4)ccc2-3)[nH]1)[C@@H](C)O` [Example 5, Dimethyl (2S,2′S,3R,3′R)-1,1′-((1R,1′R,3S,3′S,4S,4′S)-3,3′-(5,5′-(9,9,10,10-tetrafluoro-9,10-dihydrophenanthren-2,7-diyl)bis(1H-imidazol-5,2-diyl))bis(2-azabicyclo[2.2.1]heptan-3,2-diyl))bis(3-hydroxy-1-oxobutan-2,1-diyl)dicarbamate], for which the CC50 at 3 days in series [1] is > 10 nM. For the same compound, the EC50 in series [2] came to 0.041 nM.
In the case of `COC(=O)N[C@H](C(=O)N1[C@@H]2CC[C@@H](C2)[C@H]1c1ncc(-c2ccc3c(c2)C(F)(F)C(F)(F)c2cc(-c4cnc([C@@H]5[C@H]6CC[C@H](C6)N5C(=O)[C@@H](NC(=O)OC)[C@@H](C)OC)[nH]4)ccc2-3)[nH]1)[C@@H](C)OC` [Example 6, Dimethyl (2S,2′S,3R,3′R)-1,1′-((1R,1′R,3S,3′S,4S,4′S)-3,3′-(5,5′-(9,9,10,10-tetrafluoro-9,10-dihydrophenanthren-2,7-diyl)bis(1H-imidazol-5,2-diyl))bis(2-azabicyclo[2.2.1]heptan-3,2-diyl))bis(3-methoxy-1-oxobutan-2,1-diyl)dicarbamate], the CC50 at 3 days in series [1] (setting [5]) is > 10 nM. Further, the EC50 in series [2] turned out to be 0.014 nM.
For `COC(=O)N[C@H](C(=O)N1CCC[C@H]1c1ncc(-c2ccc3c(c2)C(F)(F)C(F)(F)c2cc(-c4cnc([C@@H]5CCCN5C(=O)[C@@H](NC(=O)OC)C(C)(C)C)[nH]4)ccc2-3)[nH]1)C(C)(C)C` [Example 7, Dimethyl (2S,2′S)-1,1′-((2S,2′S)-2,2′-(5,5′-(9,9,10,10-tetrafluoro-9,10-dihydrophenanthren-2,7-diyl)bis(1H-imidazol-5,2-diyl))bis(pyrrolidin-2,1-diyl))bis(3,3-dimethyl-1-oxobutan-2,1-diyl)dicarbamate] the same measures were > 10 nM and 0.0063 nM.
Take `COC(=O)N[C@H](C(=O)N1CCC[C@H]1c1ncc(-c2ccc3c(c2)C(F)(F)C(F)(F)c2cc(-c4cnc([C@@H]5CCCN5C(=O)[C@@H](NC(=O)OC)[C@@H](C)O)[nH]4)ccc2-3)[nH]1)[C@@H](C)O` [Example 8, Dimethyl ((2S,2′S,3R,3′R)-((2S,2′S)-2,2′-(5,5′-(9,9,10,10-tetrafluoro-9,10-dihydrophenanthren-2,7-diyl)bis(1H-imidazol-5,2-diyl))bis(pyrrolidin-2,1-diyl))bis(3-hydroxy-1-oxobutan-2,1-diyl))dicarbamate]: in series [1] (setting [5]), the CC50 at 3 days was > 10 nM. Besides, the EC50 in series [2] was found to be 0.058 nM.
`COC(=O)N[C@H](C(=O)N1CC2(C[C@H]1c1ncc(-c3ccc4c(c3)C(F)(F)C(F)(F)c3cc(-c5ccc6nc([C@@H]7CCCN7C(=O)[C@@H](NC(=O)OC)C(C)C)[nH]c6c5)ccc3-4)[nH]1)OCCO2)C(C)C` [Example 11, Methyl N-((2S)-1-((S)-2-(6-(7-((S)-2-(7-((S)-2-((methoxycarbonyl)amino)-3-methylbutanoyl)-1,4-dioxa-7-azaspiro[4.4]nonan-8-yl)-1H-imidazol-5-yl)-9,9,10,10-tetrafluoro-9,10-dihydrophenanthren-2-yl)-1H-benzo[d]imidazol-2-yl)pyrrolidin-1-yl)-3-methyl-1-oxobutan-2-yl)carbamate]: the CC50 at 3 days in series [1] (setting [5]) and in series [3] was > 10 nM each time. In addition, the EC50 in series [2] was found to be 0.006 nM; in series [4] it was 0.079 nM.
Consider `COC(=O)N[C@H](C(=O)N1CC2(CC2)C[C@H]1c1nc(-c2ccc3c(c2)C(F)(F)C(F)(F)c2cc(-c4ccc5nc([C@@H]6CCCN6C(=O)[C@@H](NC(=O)OC)C(C)C)[nH]c5c4)ccc2-3)c[nH]1)C(C)C` [Example 12, Methyl N-((2S)-1-((S)-2-(6-(7-((S)-2-(5-((S)-2-((methoxycarbonyl)amino)-3-methylbutanoyl)-5-azaspiro[2.4]heptan-6-yl)-1H-imidazol-5-yl)-9,9,10,10-tetrafluoro-dihydrophenanthren-2-yl)-1H-benzo[d]imidazol-2-yl)pyrrolidin-1-yl)-3-methyl-1-oxobutan-2-yl)carbamate], for which the CC50 at 3 days in series [1] (setting [5]) and in series [3] was > 10 nM throughout. For the same compound, the EC50 in series [2] stood at 0.008 nM; in series [4], 0.061 nM.
In the case of `COC(=O)N[C@H](C(=O)N1CCC[C@H]1c1ncc(-c2ccc3c(c2)C(F)(F)C(F)(F)c2cc(-c4cnc([C@@H]5CCCN5C(=O)[C@@H](NC(=O)OC)[C@@H](C)OC)[nH]4)ccc2-3)[nH]1)[C@@H](C)OC` [Example 13], the CC50 at 3 days in series [1] (setting [5]) is > 10 nM. In series [2], the EC50 turned out to be 0.056 nM.
